Consider 27 molecules from patent publication US10272110B2, “Methods for promoting HSC engraftment” (CHILDREN'S MEDICAL CENTER CORPORATION, priority 2006, dated 2019).

Where two headings read alike, the source gives them in different places.

Data set [1] concerns runx1/cmyb+ AGM HSCs. The settings on record: for Effect on HSC expression (# embryos altered/# embryos scored): runx1/cmyb+ HSCs, zebrafish embryos. As for the experimental part: A chemical genetic screen was conducted to identify novel pathways that modulate definitive HSC formation during zebrafish embryogenesis. FIG. 1. Genes such as runx1 and cmyb, required for HSC development during mammalian hematopoiesis, are expressed in the ventral wall of the dorsal aorta in a region analogous to the mammalian AGM at thirty-six hours post-fertilization (hpf). […] Wild-type embryos were incubated with individual compounds from the three-somite stage until thirty-six hpf. Probes for runx1 and cmyb were combined and utilized to detect HSCs by in situ hybridization.
Wild-type age-matched embryos were arrayed into 48-well plates (˜5 embryos/well) of individual test compounds and exposed from 3-somites until 36 hpf. […] In situ hybridization for runx1 and cmyb was performed to assess HSCs. Compounds were retested at 10 μM, 20 μM, and 50 μM. Stem cell specificity was assessed using flk1 at 36 hpf. PGE2, PGI2, dmPGE2 and all cox inhibitors (Sigma) were used at 10 μM to 20 μM.
Qualitative scoring (# embryos with altered HSCs/# scored) of runx1/cmyb was conducted using the following criteria: Normal/unchanged=continuous line of runx1/cmyb+ endothelial cells and occasional hematopoietic clusters. Decreased/absent=reduction in runx1/cmyb+ cells, including the presence of large gaps in the line of HSCs, isolated positive cells, or absence of expression. Increased/excess=enhancement in runx1/cmyb^+ cells, including many HSC clusters, a thickened line of HSCs, or ectopic expression.

Data set [2] deals with vasculature (flk1). The settings on record: zebrafish embryos, 36 hpf. How it is done: Wild-type age-matched embryos were arrayed into 48-well plates (˜5 embryos/well) of individual test compounds and exposed from 3-somites until 36 hpf. Three compound libraries were utilized: NINDS Custom Collection (1040), SpecPlus Collection (960) and BIOMOL ICCB Known Bioactives (480). […] In situ hybridization for runx1 and cmyb was performed to assess HSCs. Compounds were retested at 10 μM, 20 μM, and 50 μM. Stem cell specificity was assessed using flk1 at 36 hpf. PGE2, PGI2, dmPGE2 and all cox inhibitors (Sigma) were used at 10 μM to 20 μM.

Data set [3] relates to CFU-S from murine bone marrow cells. Put plainly: Murine colony-forming units-spleen (CFU-S). Type of data set: in vivo, mouse. To be noted: CFUS12, WBM treated ex vivo. How it is done:
Two independent BM samples were treated (n=5/treatment×2 replicates) for each variable. Recipient mice were lethally irradiated with a split dose of 10 Gy. 6×10^4 unfractionated dmPGE2 or control-treated BM cells were injected retro-orbitally into irradiated recipient mice. Spleens were dissected on day eight or twelve, weighed and fixed with Bouin's solution; hematopoietic colonies per spleen were counted. 1×10^5 cells/recipient were transplanted after treatment with the cox inhibitors. FACS sorted ckit^+sca1^+lineage^− BM cells were treated as above and transplanted at a dose of either 100 cells/recipient or 300 cells/recipient.

Data set [4] has as its system peripheral blood and bone marrow WBC. Put plainly: 5-Fluorouracil bone marrow injury. It is filed as in vivo, mouse. To be noted: in vivo exposure, IP, 1 mg/kg. How it is done:
Mice were treated with 5-FU (150 mg/kg) as described. Venezia et al., 2004. […] Peripheral blood was obtained on day seven and day fourteen, quantified and subjected to multilineage FACS analysis using antibodies (eBioscience) to B220/IgM (B-lymphoid), CD4/8 (T-lymphoid), Mac1/Gr1 (myeloid), Ter119/CD71 (erythroid) and ckit/sca1 (stem/progenitor). Mice were sacrificed on day 16, and bone marrow was isolated, quantified and analyzed by FACS.

The subject of data set [5] is kidney marrow (KM) hematopoietic lineages. The data set is described as follows: Kidney marrow irradiation recovery assay in adult zebrafish. The settings on record: 10 μM, irradiated adult zebrafish.
Excerpt: Wild-type fish were sublethally irradiated, exposed to dmPGE2, and evaluated for kinetics of KM recovery by FACS 11 (FIG. 4A).
Adult zebrafish were exposed to 23 Gy of γ-irradiation. […] Whole KM isolated on days 0, 2, 4, 7, 10, 14 was subjected to FSC/SSC FACS analysis to identify hematopoietic lineages (n=5/treatment×3 replicates).
The mark [6] stands for this setting: exposure from three somites to 36 hpf, runx1/cmyb staining.

`CCCCC[C@H](O)/C=C/[C@H]1[C@H](O)CC(=O)[C@@H]1C/C=C/CCCC(=O)O` (relative stereo) [5-trans PGE2]: the “toxicity in zebrafish embryo screen” value in data set [1] (Table 4) was “toxic”.

As to `CCCCC[C@H](O)/C=C/C=C\CCCCCCCC(=O)O` [13(S)-HODE], in data set [1] (Table 1, 36 hpf), the “Effect on HSC expression (# embryos altered/# embryos scored)” value (from here on “Effect on HSC expression”) is recorded as “Increase (15/25)”. For `CC(=O)Oc1ccccc1C(=O)O` [Aspirin], in data set [1] (setting [6]), the “effect on AGM HSCs in zebrafish embryos (in words)” value (shortened to “effect on AGM HSCs”) is reported as “reduced stem cells in the aorta”. On to `CC(C)NCC(O)COc1ccc(CC(N)=O)cc1` (stereo not drawn) [Atenolol], for which the “effect on AGM HSCs” value in data set [1] (setting [6]) is listed as “heightened production of AGM stem cells”. With `O=C1Nc2cc(Br)ccc2/C1=C1/Nc2ccccc2/C1=N\O` [BIO], the “effect on AGM HSCs” value in data set [1] (setting [6]) is “HSC enhancers”.

Turning to `Cc1ccc(-c2cc(C(F)(F)F)nn2-c2ccc(S(N)(=O)=O)cc2)cc1` [Celecoxib], the “decreased runx1/cmyb+ HSCs (# embryos altered/# scored)” value in data set [1] (20 μM, 36 hpf) is 26/31. With `CCCCCC1OC1C/C=C\C/C=C\C/C=C\CCCC(=O)O` (stereo not drawn) [Epoxyeicosatrienoic Acid], the “Effect on HSC expression” value in data set [1] (Table 1, 36 hpf) is listed as “Increase (17/25)”. With `O=C(O)CCC(=O)c1ccc(-c2ccccc2)cc1` [Fenbufen], in data set [1] (Table 2, 36 hpf), the “Effect on HSC expression” value was “Decrease (20/26)”. The “effect on AGM HSCs” value in data set [1] (setting [6]) is on record as “decreased HSCs”. As for `O=S(=O)(NCCNC/C=C/c1ccc(Br)cc1)c1cccc2cnccc12` [H89], the “effect on AGM HSCs” value in data set [1] (setting [6]) is “inhibit HCS”. On to `CC(C)Cc1ccc(C(C)C(=O)O)cc1` (stereo not drawn) [Ibuprofen], for which, in data set [1] (setting [6]), the “effect on AGM HSCs” value is on record as “reduced stem cells in the aorta”.

As for `CCCCCCOC(=O)[C@]1(O)C[C@@H]2O[C@@]1(C)n1c3ccccc3c3c4c(c5c6ccccc6n2c5c31)C(=O)NC4` [KT5720], the “effect on AGM HSCs” value in data set [1] (setting [6]) is “inhibit HCS”. For the molecule `O=C1Cc2c([nH]c3ccc(Br)cc23)-c2ccccc2N1` [Kenpaullone], the “effect on AGM HSCs” value in data set [1] (setting [6]) is “inhibit HCSs”. With `CCCCC/C=C\C/C=C\CCCCCCCC(=O)O` [Linoleic Acid], the “Effect on HSC expression” value in data set [1] (Table 1, 36 hpf) is listed as “Increase (22/30)”. For the same molecule, the “effect on AGM HSCs” value in data set [1] (setting [6]) is reported as “upregulated HSC formation”. In addition, the “effect on vasculature / flk1 staining (in words)” value in data set [2] is reported as “remained relatively unchanged”. As for `CCCc1c(OCCCCc2nnn[nH]2)ccc(C(C)=O)c1O` [Ly-171883], in data set [1] (Table 1, 36 hpf), the “Effect on HSC expression” value is “Increase (17/26)”.

For `CCCCCCCC/C=C\C/C=C\C/C=C\CCCC(=O)O` [Mead Acid], the “Effect on HSC expression” value in data set [1] (Table 1, 36 hpf) was “Increase (24/32)”. The “effect on AGM HSCs” value in data set [1] (setting [6]) is “upregulated HSC formation”.

As for `CS(=O)(=O)Nc1ccc([N+](=O)[O-])cc1OC1CCCCC1` [NS398], the “decreased runx1/cmyb+ HSCs (# embryos altered/# scored)” value in data set [1] (20 μM, 36 hpf) is recorded as 35/44. The “effect on AGM HSCs” value in data set [1] (setting [6]) is “reduced stem cells in the aorta”. The “CFUS activity under selective cox inhibition” value in data set [3] is reported as “significantly alter CFUS activity”. The “peripheral blood (day 14) and bone marrow (day 16) WBC counts after 5-FU injury” value in data set [4] was “significantly inhibited WBC recovery”. Besides, in data set [5], the “survival of irradiated fish to day fourteen” value is “excessive death”. For `COc1ccc2cc([C@H](C)C(=O)O)ccc2c1` [Naproxen], the “effect on AGM HSCs” value in data set [1] (setting [6]) is “reduced stem cells in the aorta”. For `COc1cccc(-c2cc(=O)c3ccccc3o2)c1N` [PD9805], the “effect on AGM HSCs” value in data set [1] (setting [6]) is given as “inhibit HCS”. In the case of `CCCCC[C@H](O)/C=C/[C@@H]1[C@@H](C/C=C\CCCC(=O)O)[C@@H](O)C[C@H]1O` [PGF2], the “effect on AGM HSCs” value in data set [1] (setting [6]) is “no effect”.

As to `CCCCC[C@H](O)/C=C/[C@@H]1[C@H]2C/C(=C/CCCC(=O)O)O[C@H]2C[C@H]1O` [PGI2], the “increased runx1/cmyb expression (# embryos altered/# scored)” value in data set [1] (20 μM, 36 hpf) was 28/47. For the same molecule, the “effect on AGM HSCs” value in data set [1] (setting [6]) was “increase moderately”.

As to `CCCCC[C@H](O)/C=C/[C@H]1C(=O)C=C[C@@H]1C/C=C\CCCC(=O)O` [Prosteglandin J2], the “Effect on HSC expression” value in data set [1] (Table 2, 36 hpf) is given as “Decrease (12/22)”. Take `C[C@]12CC[C@H]3[C@@H](CC[C@]4(O)C[C@@H](O)CC[C@]34C=O)[C@@]1(O)CC[C@@H]2C1=CC(=O)OC1` [Strophanthidin]: the “effect on AGM HSCs” value in data set [1] (setting [6]) is recorded as “increases AGM stem cells”. For `CC1=C(CC(=O)O)c2cc(F)ccc2/C1=C\c1ccc([S+](C)[O-])cc1` (stereo not drawn) [Sulindac], the “Effect on HSC expression” value in data set [1] (Table 2, 36 hpf) was “Decrease (18/31)”. `CCCCC1(COC(=O)CCC(=O)O)C(=O)N(c2ccccc2)N(c2ccccc2)C1=O` [Suxibuzone]: the “Effect on HSC expression” value in data set [1] (Table 2, 36 hpf) is “Decrease (16/30)”. Take `N#CC(=C(/N)Sc1ccccc1N)/C(C#N)=C(\N)Sc1ccccc1N` [U0126]: the “effect on AGM HSCs” value in data set [1] (zebrafish, in vivo) is listed as “inhibit HCS”.

For the molecule `CCCC(CCC)C(=O)O` [Valproic Acid], the “effect on AGM HSCs” value in data set [1] (setting [6]) is recorded as “inhibit HCSs”. On to `[Cl-].[Li+]` [lithium chloride], for which, in data set [1] (setting [6]), the “effect on AGM HSCs” value was “HSC enhancers”.
